# From patent US4690935A, “Inhibition of tumor growth and metastasis with calcium channel blocker compounds” (Wayne State University, priority 1983, dated 1987)
# System: Platelet
# Test: Tumor cell (Lewis Lung Carcinoma, 3LL) induced platelet aggregation (TCIPA)
# Format: cell-based, human
# Settings: 3LL cells
# Method: Blood (45 ml) was drawn from the […] vein of healthy, fasted, aspirin free (at least two weeks) human volunteers into a plastic syringe containing 5 ml of 4.8% dextrose with 50 U/ml heparin buffered by 25 mM HEPES, pH 7.5. An 18 gauge needle was used to prevent hemolysis. The heparinized blood was gently mixed by inverting the syringe five times and then the blood was transfused into two 40 ml plastic centrifuge tubes and centrifuged for 10 min at 163×g. The resulting platelet rich plasma (PRP; the supernatant fraction) was decanted using an adjustable SMI pipette set at 6 ml. Platelet poor plasma (PPP) was prepared by centrifugation of PRP for 10 min at 1086×g. Platelet poor plasma was used to standardize the platelet concentration in PRP to 3×10^8 /ml. Platelet concentrations were determined using a Coulter Model ZBI cell counter.
# Platelet aggregation was measured photometrically using a Sienco Model DP-247E dual channel aggregometer and recorded on a Sienco Model B-5000 dual channel recorder. Aliquots of PRP (250 microliters at 3×10^8 platelets/ml) were transferred into aggregometry cuvettes and stirred at a constant speed of 800 RPM at 37° C. Platelet aggregation studies were designed and run as individually controlled samples. BAY e 9736 was dissolved in either PEG-400 or […] (DMSO).
# BAY e 9736 in PEG-400 alone was aliquoted into the cuvettes prior to the addition of the PRP. Immediately after the addition of the PRP, the cuvettes were placed into the aggregometer. After two minutes (to allow for the stabilization of the platelet preparation and mixing of the BAY e 9736), ADP or tumor cells were added in 20 microliter aliquots to induce platelet aggregation.
# The calcium channel blocker nifedipine was tested for its ability to inhibit tumor cell induced platelet aggregation (TCIPA). Nifedipine (20 mg) was dissolved in one milliliter of abolute ethanol:PEG-400 (1:1), and then diluted 1:10 with the same ethanol:PEG-400 mixture. […]
structure (smiles),measurement,setting,value
COC(=O)C1=C(C)NC(C)=C(C(=O)OC)C1c1ccccc1[N+](=O)[O-] [nifedipine],effect on tumor cell induced platelet aggregation (in words),,can inhibit TCIPA in a dose dependent fashion
same,inhibition at 15 µg/mL,"Homo sapiens, 0.015 mg/ml, read-out: INHIBITION OF CONTROL TCIPA",22%
same,inhibition at 150 µg/mL,"Homo sapiens, 0.15 mg/ml, read-out: INHIBITION OF CONTROL TCIPA",42%
